In a melting point compilation (Tetko et al.; mined from patent text by program, amines drawn as free bases though some values may be those of a salt):
Structures can show the parent of a compound that is named as a salt. Residues, ends and D or L forms follow the SMILES beside them. *: point of attachment. Tfa = O=C(C(F)(F)F)*

Row | Compound | melting point [°C]
1 | CC(C)(O)Cn1c(CO)nc2c(N)nc3cc(CCS(C)(=O)=O)ccc3c21 | 221 to 223
2 | Cc1ccn2c(-c3ccnc(-c4ccc(N5CCOCC5)cc4)c3)c(-c3cccc(C)n3)nc2c1 | 208
3 | COc1ccc(CNc2nnc(-n3ccnc3)c3ccc(Cl)cc23)cc1Cl | 221 to 222
4 | Cc1ccc(N(C)S(=O)(=O)c2cccs2)c2[nH]c(C3=NCC(C#N)S3)cc12 (centres undefined) | 173 to 174
5 | CCCCCCCCCCCCCCCCCCOc1ccc(O)c(C(=O)N(CC(=O)O)CC(=O)O)c1 | 128 to 132
6 | O=C(O)CNC(=O)CNC(=O)C(F)(F)F (Tfa-Gly-Gly-OH) | 185
7 | C[C@@H](Cn1ncc2ccc3c(c21)O[C@@H](CN=[N+]=[N-])CO3)NC(=O)OC(C)(C)C | 134 to 135
8 | C1=C(c2cccs2)CCN(CCCCc2c[nH]c3cc4c(cc23)OCO4)C1 | 86
9 | CN(C)C12CC3CC(CC(O)(C3)C1)C2 | 60 to 64
10 | Cn1nc(-c2cc([N+](=O)[O-])cc([N+](=O)[O-])c2)cc1O | 230 to 231
11 | COc1cc(CC(=O)NCCOc2scc(C)c2C)ccc1OCCN | 85 to 87
12 | CC(=O)OC1C=CC2(C)C(=CCC3C2CCC2(C)C3CCC23OCCO3)C1 (centres undefined) | 105 to 106
13 | ClCc1cn2cc(Cl)ccc2n1 | 123 to 124
14 | Nc1ccc(CNC(=O)C2Cc3ccccc3N2S(=O)(=O)c2ccc(-c3cccc(C(F)(F)F)c3)cc2)cc1 (centres undefined) | 84
15 | CCOC(=O)Cc1csc(NC(=O)c2sc3ccc(OC)cc3c2OC(C)C)n1 | 91 to 92
16 | Cc1ccc(-c2nc3ccc(N)cn3c2CNC(=O)CC(C)C)cc1 | 245 to 247
17 | Cc1c(Cc2cccc(C(F)(F)F)c2)oc2c(-c3cccc(C(=O)NCC(N)=O)c3)cccc12 | 194 to 195
18 | Cc1cc(S(=O)(=O)Cl)c(C)c(S(=O)(=O)Cl)c1 | 24 to 27
19 | Cc1ccc(CCOc2cccc3c(Cl)ccnc23)cc1 | 74 to 75
20 | CCCC(=O)Nc1cc(C(Cl)(Cl)Cl)ccn1 | 88 to 90
21 | Nc1nc(N)c2nc(CNc3ccc(Cl)cc3)cnc2n1 | > 360

Row | Compound | melting point [°C]
22 | CC[C@@]12C[C@H](O)[C@](O)(c3c(F)cccc3F)C[C@H]1CCc1cc(OCc3cccnc3C)ccc12 | 80 to 83
23 | Cc1cc2c(c(C)c1C)OCC2 | < 50
24 | CC12CCC3C(CC=C4CC(O)CCC43C)C1CC(Br)C2=O (centres undefined) | 167 to 168
25 | CN1C(=O)CN=C(c2ccccc2F)c2c1cc(Cl)c(NC(=O)C(F)(F)F)c2Cl | 238 to 240
26 | CCN(CC)CCOc1ccc2cc3ccc(OCCN(CC)CC)c(Cl)c3nc2c1Cl | 83 to 84
27 | O=C1C(=Cc2ccc([N+](=O)[O-])s2)CCc2cc(OCCn3ccnc3)ccc21 | > 240
28 | N#Cc1c(Cl)cc(OCc2ccncc2)cc1OC(C(=O)O)c1ccccc1Cl (racemic) | 165 to 167
29 | CCOC(=O)CN(CC=CC(=O)Nc1cc2c(Nc3ccc(F)c(Cl)c3)ncnc2cc1OCC1CC1)CCOC(C)=O | 90 to 92
30 | COc1ccc(OC)c(CCc2ccc3ncnc(N)c3c2)c1 | 160 to 165
31 | NC[C@@H]1CCc2cc(S(=O)(=O)Nc3ccc(-n4ccn(CCCC5CCCCC5)c4=O)cc3)ccc2O1 | 108 to 110
32 | CCOC(=O)c1c(SCOC)nc2cc(F)c(F)cc2c1O | 123 to 127
33 | N#CC(=NO)c1c(Cl)cccc1Cl | 94 to 96
34 | Cc1ccc(-c2coc3cc(O)c(O)cc3c2=O)cc1 | 280
35 | COC(=O)c1ccc(Cn2c(=O)c3cc(C(=O)NCc4ccc(OC)cc4)ccc3n(C)c2=O)cc1 | 189
36 | COc1ccc(C=C2CCc3c2nc2ccc(C)cn2c3=O)cc1 | 210 to 211
37 | CCCCCNc1nc(NC(C)C)c2ncn(CC(=O)O)c2n1 | 173 to 176
38 | COc1cc(/C=C2/C(=O)OC(=O)C2=C(C)C)cc(OC)c1 | 161 to 162
39 | CCCCCCCCCC=C1OC(=O)N(CCCCSc2cccc3nccn23)C1=O | 46 to 48
40 | O=C(Nc1nccs1)c1cn(CC2CCCCC2)c2cc(Cl)ccc12 | 181 to 183
41 | O=C(O)CN(CC(=O)O)c1cc(OCCCCCCCCCCCCOc2ccccc2)cc(OCCCCCCc2cccc(O)c2O)c1 | 129 to 131

The remaining lines, values ahead:

Row | melting point [°C] | Compound
42 | 192 to 202 | COc1ccc(CC2CNC(=O)N2)cc1O (centres undefined)
43 | 165 to 168 | Nc1nc2c(s1)CCN(CC=Cc1cccc([N+](=O)[O-])c1)CC2
44 | 154 to 158 | CCn1c(C)nc(N2CCc3ccccc3CC2)c(C#N)c1=O
45 | 150 to 151 | CN1C(=O)SC(S(=O)(=O)c2cccc3c(Br)cccc23)C1=O (centres undefined)
46 | 280 | O=C(O)CCCc1nc2nc[nH]c2c2nc(-c3ccccc3)nn12
47 | 144 to 147 | COc1ccccc1Oc1c(NS(=O)(=O)c2c(C)noc2C)nc(N2CCOCC2)nc1OCCO
48 | 218 | N#Cc1cc(NC(=O)c2cc3ccccc3s2)ccc1N1CCC(CCO)CC1
49 | 64 to 66 | COC(=O)CSC(CCCc1ccccc1)c1ccc(OCc2ccc3ccc(F)cc3n2)cc1 (centres undefined)
50 | 66 | COC(CN(c1nc2ccccc2o1)[C@H]1c2cc(C#N)ccc2OC(C)(C)[C@@H]1O)OC
51 | 197 to 198 | CC(C)C(=O)NC1C(OCc2ccccc2)=CC=CC1(Br)[N+](=O)[O-] (centres undefined)
52 | 90 to 100 | Cc1ccc(-c2ccc(O)cc2)c(-c2ccc(OCCN3CCCCC3)cc2)n1
53 | 132 to 136 | O=C(c1ccc2nonc2c1)N1CCC(O)CC1
54 | 112 | CC(C)C[C@@H](C(=O)N[C@@H](C(C)C)[C@H](O)c1c(-c2ccccc2)c1=O)N(C)C(=O)OCc1ccccc1
55 | 237 | CCCOC(=O)C1=C(N)NC(C)=C(C#N)C1c1cccc2ncc(-c3ccccc3)cc12 (centres undefined)
56 | 96 to 97 | C=C1N(C)C(=O)OC12CCN(Cc1ccccc1)CC2
57 | 60 to 62 | Fc1ccc(Cn2cnc3ccccc32)cc1
58 | 75.7 | COc1ccc(COC(=O)c2ccccc2)cc1OCc1ccccc1
59 | 176 to 178 | COc1nn(-c2cccc(Nc3nccs3)c2)c(=O)n(Cc2ccc(Cl)cc2)c1=O
60 | 250 to 252 | CC1(C)C=C(n2cccnc2=O)c2cc(C#N)ccc2O1
61 | 232 to 234 | O=c1c(Cc2ccncc2)c(-c2ccc(Cl)cc2)[nH]c2ccccc12
62 | 49.5 to 50 | CC(NCc1ccccc1)N(Cc1ccccc1)CC(C)[N+](=O)[O-] (centres undefined)
63 | 115 to 116 | COc1cccc(-c2cc(=O)c3cc(OCCCCCN4CCC(O)CC4)ccc3o2)c1
64 | 248 to 249 | COc1c(CN2C(=O)c3ccccc3C2=O)n(C)c(=O)c2ccc(Cl)cc12
65 | 171 to 172 | Clc1cccc2c(CN3CC=C(CCc4ccccc4)CC3)n[nH]c12
66 | 173 to 175 | Nc1ccc(S(=O)(=O)c2cc(Br)nc(N3CCNCC3)c2)cc1
67 | 162 to 163 | CC(C)n1nc(-c2c(OCc3ccccc3)nc(N)nc2-c2ccccc2)ccc1=O
68 | 136 to 140 | COc1ccc(C(=O)Cn2c(-n3ccc(N)n3)nc3ccccc32)cc1
69 | 85 to 96 | O=C(O)C1CCc2ccccc2N1C(=O)CS (centres undefined)
